Results reported in patent US20240115532A1, “USE OF L-ERGOTHIONEINE FOR ALLEVIATING AND PREVENTING AGE-RELATED VISUAL DEGENERATION” (NANJING NUTRABUILDING BIO-TECH CO., LTD., priority 2021, published 2024).

How the values were obtained:
[1] = tested on: Nrf2; assay: Nrf2 real-time PCR in retina tissues; format: in vivo, C57BL/6J mice; details: aged mice, 2 or 10 mg/kg/d by gavage for 5 months
Experimental: (§1) They were randomly divided into three groups: (1) non-supplement group (Con, n=6); (2) L-Ergothioneine supplement group with low dosage (L-Ergothioneine, 2 mg/kg/d, n=6); (3) L-Ergothioneine supplement group with high dosage (L-Ergothioneine, 10 mg/kg/d, n=6). Some mice were administered L-Ergothioneine for once daily by gavage in normal saline solution for 5 months.
(§2) Mice were euthanized by CO2 inhalation followed by cervical dislocation at the end of study and their eyes were immediately removed. The eyes of some mice (n=3) fixed in 2% paraformaldehyde for 2 h and the retina samples of some mice (n=3) were isolated from eyes radically. All tissues were frozen in optimal cutting temperature embedding compound.
Total RNA was isolated from retina tissues using Trizol reagent. Real-time PCR was measured and performed with the following primers: Nrf2 forward 5′-[…]-3′. RNA samples were reverse-transcribed to cDNA and subjected to quantitative PCR, performed with a Light Cycler 96 Real-Time PCR System using the AceQ qPCR SYBR Green Master Mix. Nrf2 measurements can be identify the capacity of L-Ergothioneine-mediated Nrf2.

[2] = tested on: ROS; assay: Zebrafish ROS fluorescence value (CM-H2DCFDA); format: in vivo; details: wild-type AB strain, 500, 1000, 2000 μg/mL, 2 days plus 20 hours staining, FIG. 3
Experimental: After 2 days of supplementation at 28° C., zebrafish were stained with CM-H2DCFDA, and the original concentration in each well remained unchanged. 10 zebrafish were randomly selected from each experimental group and transferred to black 96 microtiter plates.

[3] = tested on: subretinal choroidal neovascularization (CNV); assay: Fluorescein angiography of Matrigel-induced subretinal CNV in aged mice; format: in vivo, C57BL/6J mice; details: 2 or 10 mg/kg/d by gavage for 5 months
Text: The healthy and male C57BL/6J mice at 18-24 months of age were maintained under the barrier conditions in a temperature-controlled environment and fed a commercial mouse chow.
The healthy and male C57BL/6J mice at 14-18 months of age were maintained under the barrier conditions in a temperature-controlled environment and fed a commercial mouse chow.
Animal mode of subretinal choroidal neovascularization (CNV): All mice were subretinally injected with Matrigel in both eyes under general anesthesia. The liquid Matrigel (75% v/v) was prepared using phosphate-buffered saline (PBS) at 4° C. After exposing the sclera, an incision was made between the limbus and the equator using a sharp No. 33 size needle. The Matrigel suspension (0.5 μl per eye) administered via a Hamilton microsyringe with a No. 33 blunt tip needle was slowly injected into the subretinal space along the previous needle tract. Following injection, the Matrigel polymerized to form a solid gel. Fluorescence angiograms were performed over a period of 3 weeks to identify whether mice have CNV.
Fluorescein angiography: After subretinal injection, fluorescein angiograms were obtained on days 3, 7, 10, 14, and 21. Briefly, every mouse group (n=5) were anesthetized with ketamine and xylazine, and the pupils were dilated with 0.5% tropicamide eye drops. […]

[4] = tested on: vegfaa genes; assay: Zebrafish q-PCR of vegfaa genes; format: in vivo; details: 3 days at 28° C., FIG. 6
Experimental: (§3) After 3 days of supplementation at 28° C., the total RNA of each group of zebrafish was extracted using an RNA rapid extraction kit, and the concentration and purity of total RNA were determined by UV-Vis spectrophotometer. Take 2.00 μg of total RNA from zebrafish samples and follow the instructions of the first-strand cDNA synthesis kit to synthesize 20.0 μL of cDNA, and detect the expression of ß-actin and VEGFR1 genes by q-PCR. Using 6-actin as an internal reference for gene expression, the relative RNA expression levels of VEGFR1 genes were calculated.
(§4) The other test condition and methods are the same as test 7. Except that just detect 6-actin, hif-1α and vegfaa genes by q-PCR.

[5] = tested on: VEGFR1 genes; assay: Zebrafish q-PCR of VEGFR1 genes; format: in vivo; details: 3 days at 28° C., β-actin internal reference, FIG. 4
Experimental: Except that the positive control is bevacizumab (a potent antiangiogenic substance), experimental animals, sample preparation of L-Ergothioneine and sample processing are the same as in test 4.
as §3

[6] = tested on: oxidation-induced EMT in RPE; assay: Immunoreactivity of mesenchymal markers (Slug, Snail, vimentin, OB-cadherin) in RPE sections; format: in vivo, C57BL/6J mice; details: aged mice, 2 or 10 mg/kg/d by gavage for 5 months
Experimental: as §1, §2
From paraffin embedded blocks, 3 μm-thick parasagittal serial sections were cut with a microtome for future testing the immunoreactivity of mesenchymal markers. The immunoreactivity of mesenchymal markers (Slug, Snail, vimentin, OB-cadherin) was examined with a confocal microscope. And semi-quantitative comparative densitometric analysis performed by ImageJ of the immunoreactivity of the mesenchymal markers in 1-μm parasagittal sections of RPE. Alexa Fluor secondary antibodies were used to detect specific mesenchymal markers. DAPI (4,6-diamidino-2-fenilindole, dihydrochloride) was used to stain the nuclei of RPE cells.

[7] = tested on: subretinal choroidal neovascularization; assay: Zebrafish wet macular degeneration model (cobalt chloride), choroidal vessel area; format: in vivo; details: 500, 1000, 2000 μg/mL in water, 3 days, 28° C., FIG. 1
Experimental: Experimental animals: Zebrafish were raised in fish water at 28° C. (water quality: 200 mg of instant sea salt was added to each 1 L of reverse osmosis water, the conductivity was 450-550 μS/cm; pH was 6.5-8.5; hardness was […] CaCO3). Transgenic vascular green fluorescent zebrafish (Fli-1 strain) were reproduced by natural paired mating. Age is 1 day after fertilization (1 dpf).
Sample preparation: L-Ergothioneine, white powder, was prepared into 2.00 mg/mL mother solution with standard dilution water. Positive control: Aescin and digitalis double glucoside eye drops was directly sucked the original solution.
Experimental design: The transgenic vascular green fluorescent strain zebrafish aged 1 day after fertilization (1 dpf) were randomly selected and placed in a 6-well plate, with 30 fish in each well (each experimental group). L-Ergothioneine (concentrations of 500, 1000, and 2000 μg/mL) were administered in water solution, respectively, and the positive control escin and digitalis glucoside eye drops (containing 0.3 μg/mL of digitonin and 2.0 μg/mL of escin) were administered, respectively. […] After 3 days of treatment at 28° C., 10 zebrafish were randomly selected from each experimental group and placed under a fluorescence microscope to take pictures, and the NIS-Elements D 3.20 advanced image processing software was used to analyze and collect the data. […]

[8] = tested on: hif-1α genes; assay: Zebrafish q-PCR of hif-1α genes; format: in vivo; details: 3 days at 28° C., FIG. 5
Experimental: as §3, §4

[9] = tested on: Reactive oxygen species (ROS); assay: ROS in retina tissue by 2',7'-dichlorofluorescein diacetate fluorescence; format: in vivo, C57BL/6J mice; details: aged mice, 2 or 10 mg/kg/d by gavage for 5 months
Experimental: as §1, §2
Partial retina tissues were obtained and rapidly broken up in ice-cold normal saline. A tissue homogenate (10%, w/v) was then prepared.
Antioxidant capacity of the retina was measured using an assay based on the ability of the sample to inhibit the oxidation of 2,2′-azino-di-[3-ethylbenzthiazoline sulfonate]+(ABTS) by metmyoglobin. The amount of ABTS+ produced was measured in terms of the decrease in absorbance caused by the antioxidants in the sample. Reactive oxygen species (ROS) were quantified by fluorescence spectroscopy using 2′,7′-dichlorofluorescein diacetate.

[10] = tested on: zebrafish retinal structure; assay: Zebrafish eye histopathology (H&E) after cobalt chloride model; format: in vivo; details: FIG. 2
Text: Experimental animals, sample preparation, sample processing and administration are same as test 4. After that, these zebrafish after 3 days of administration were fixed with 4% histiocyte fixative, then stained with H&E and they were subject to test ocular histopathological analysis.

[11] = tested on: VEGF; assay: VEGF ELISA in retina tissue homogenate; format: in vivo, C57BL/6J mice; details: aged mice, 2 or 10 mg/kg/d by gavage for 5 months
Experimental: They were randomly divided into three groups: (1) non-supplement group (Con, n=6); (2) L-Ergothioneine supplement group with low dosage (L-Ergothioneine, 2 mg/kg/d, n=6); (3) L-Ergothioneine supplement group with high dosage (L-Ergothioneine, 10 mg/kg/d, n=6). Some mice were administered L-Ergothioneine for once daily by gavage in normal saline solution for 5 months. […] Partial retina tissues were obtained and rapidly broken up in ice-cold normal saline. A tissue homogenate (10%, w/v) was then prepared. Retina tissues homogenate was centrifuged (2000 rpm, 10 min, 4° C.) and the supernatants were collected and applied to a pre-coated human VEGF microplate. VEGF concentrations was measured in experimental groups of mice using enzyme-linked immunosorbent assay (ELISA) kits to evaluate the levels of proinflammatory cytokines in the retina. This test can assess that the ability of L-Ergothioneine to prevent age-related visual degeneration-induced increases in VEGF level.

Structure (SMILES): C[N+](C)(C)[C@@H](Cc1c[nH]c(=S)[nH]1)C(=O)[O-] [L-Ergothioneine]
- activation of Nrf2-mediated genes in retina [1]: activated
- ROS fluorescence value of zebrafish [2]: good effect on preventing retinal degeneration
- CNV level [3]: attenuated obviously
- relative expression level of vegfaa genes [4]: lowering the expression level
- relative expression level of VEGFR1 genes [5]: decreasing the expression of VEGFR1 genes
- mesenchymal marker immunoreactivity in RPE [6]: decreased
- oxidation-induced EMT / epithelial fibrosis in RPE [6]: inhibited
- choroidal vessel area of the zebrafish eye [7]: could mitigate subretinal choroidal neovascularization
- relative expression level of hif-1α genes [8]: lowering the expression level
- scavenging of chronic ROS in retina [9]: about 45%
- damage of zebrafish retinal structure (histopathological section) ([10]; 500, 1000, 2000 μg/mL, 3 days, H&E): can improve the damage of zebrafish retinal structure
- effect on retinal structure compared with positive control eye drops ([10]; versus aescin and digitalis double glucoside eye drops): better than that of aescin and digitalis double glucoside eye drops
- decrease of VEGF level in retina [11]: about 50%
